Assay results taken from ChEMBL document CHEMBL1201862, “PubChem BioAssay data set” (2004).
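Cultured in 96-well plates, cells were exposed to test compound for 48 hours across five concentrations. At the GI50, growth is halved.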 Activity calls are given as the source filed them. Cut-off read from the data, not from the text of the source: active = GI50 up to about 1.1 µM and inactive = higher.

What was measured:
Experiment in all cases: NCI tumour cell line growth inhibition, 48 h
[1] = test system: NCI-H460
[2] = test system: SK-MEL-5
[3] = test system: NCI-H226
[4] = test system: OVCAR-3
[5] = test system: EKVX
[6] = test system: SK-OV-3
[7] = test system: TK-10
[8] = test system: MOLT-4
[9] = test system: HCT-15
[10] = test system: MDA-N
[11] = test system: DU-145
[12] = test system: SNB-19
[13] = test system: HT-29
[14] = test system: SF-539
[15] = test system: UO-31
[16] = test system: NCI/ADR-RES
[17] = test system: A498
[18] = test system: SW-620
[19] = test system: HCT-116
[20] = test system: SNB-75
[21] = test system: SN12C
[22] = test system: SR
[23] = test system: SF-295
[24] = test system: COLO 205
[25] = test system: OVCAR-4
[26] = test system: SK-MEL-2
[27] = test system: LOX IMVI
[28] = test system: 786-0
[29] = test system: MDA-MB-231
[30] = test system: CAKI-1
[31] = test system: UACC-62
[32] = test system: ACHN
[33] = test system: MDA-MB-435
[34] = test system: U-251
[35] = test system: K562
[36] = test system: UACC-257
[37] = test system: SK-MEL-28
[38] = test system: OVCAR-8
[39] = test system: HOP-92
[40] = test system: HL-60
[41] = test system: CCRF-CEM
[42] = test system: A549
[43] = test system: OVCAR-5
[44] = test system: MCF7
[45] = test system: KM12
[46] = test system: M14
[47] = test system: RXF 393
[48] = test system: IGROV-1
[49] = test system: HOP-62
[50] = test system: NCI-H23
[51] = test system: NCI-H522
[52] = test system: SF-268
[53] = test system: T47D
[54] = test system: HCC 2998
[55] = test system: Hs-578T
[56] = test system: RPMI-8226
[57] = test system: Malme-3M
[58] = test system: PC-3

CC12C3C4C1C1C2C3C41CO (stereo not given)
GI50 [1]: > 100 µM (inactive) | GI50 [2]: > 100 µM (inactive) | GI50 [3]: > 100 µM (inactive) | GI50 [4]: > 100 µM (inactive) | GI50 [5]: > 100 µM (inactive) | GI50 [6]: > 100 µM (inactive) | GI50 [7]: > 100 µM (inactive) | GI50 [8]: > 100 µM (inactive) | GI50 [9]: > 100 µM | GI50 [10]: > 100 µM (inactive) | GI50 [11]: > 100 µM (inactive) | GI50 [12]: > 100 µM (inactive) | GI50 [13]: > 100 µM (inactive) | GI50 [14]: > 100 µM (inactive) | GI50 [15]: > 100 µM (inactive) | GI50 [16]: > 100 µM (inactive) | GI50 [17]: > 100 µM (inactive) | GI50 [18]: > 100 µM (inactive) | GI50 [19]: > 100 µM (inactive) | GI50 [20]: 34 µM (inactive) | GI50 [21]: > 100 µM (inactive) | GI50 [22]: > 100 µM (inactive) | GI50 [23]: > 100 µM (inactive) | GI50 [24]: > 100 µM (inactive) | GI50 [25]: > 100 µM (inactive) | GI50 [26]: > 100 µM (inactive) | GI50 [27]: > 100 µM (inactive) | GI50 [28]: > 100 µM (inactive) | GI50 [29]: > 100 µM (inactive) | GI50 [30]: > 100 µM (inactive) | GI50 [31]: > 100 µM (inactive) | GI50 [32]: > 100 µM (inactive) | GI50 [33]: > 100 µM (inactive) | GI50 [34]: > 100 µM (inactive) | GI50 [35]: > 100 µM (inactive) | GI50 [36]: > 100 µM (inactive) | GI50 [37]: > 100 µM (inactive) | GI50 [38]: > 100 µM (inactive) | GI50 [39]: > 100 µM (inactive) | GI50 [40]: > 100 µM (inactive) | GI50 [41]: > 100 µM (inactive) | GI50 [42]: > 100 µM (inactive) | GI50 [43]: > 100 µM (inactive) | GI50 [44]: > 100 µM (inactive) | GI50 [45]: > 100 µM (inactive) | GI50 [46]: > 100 µM (inactive) | GI50 [47]: > 100 µM (inactive) | GI50 [48]: > 100 µM (inactive)

CN(N=O)N1C(=O)SCC(c2ccccc2)(c2ccccc2)C1=O
GI50 [1]: 9.62 µM (inactive) | GI50 [2]: 37.8 µM (inactive) | GI50 [3]: 14 µM (inactive) | GI50 [4]: 37.6 µM (inactive) | GI50 [49]: 65.9 µM (inactive) | GI50 [5]: 34.7 µM (inactive) | GI50 [6]: 25.2 µM (inactive) | GI50 [50]: > 100 µM (inactive) | GI50 [7]: 50.2 µM (inactive) | GI50 [8]: 61.8 µM (inactive) | GI50 [9]: 41.7 µM | GI50 [10]: 28.4 µM (inactive) | GI50 [11]: 91 µM (inactive) | GI50 [12]: 57.9 µM (inactive) | GI50 [13]: 33.3 µM (inactive) | GI50 [14]: 21.9 µM (inactive) | GI50 [51]: 23.3 µM (inactive) | GI50 [15]: 25.8 µM (inactive) | GI50 [16]: 34.4 µM (inactive) | GI50 [17]: > 100 µM (inactive) | GI50 [18]: 38.7 µM (inactive) | GI50 [19]: 40.4 µM (inactive) | GI50 [20]: 25.6 µM (inactive) | GI50 [21]: 31.6 µM (inactive) | GI50 [22]: 37.5 µM (inactive) | GI50 [23]: 35.6 µM (inactive) | GI50 [24]: 25.3 µM (inactive) | GI50 [26]: 18.9 µM (inactive) | GI50 [27]: 30 µM (inactive) | GI50 [28]: 46.6 µM (inactive) | GI50 [52]: 32.1 µM (inactive) | GI50 [29]: 37.3 µM (inactive) | GI50 [30]: 46.3 µM (inactive) | GI50 [31]: 37.8 µM (inactive) | GI50 [53]: 67.8 µM (inactive) | GI50 [32]: 37.2 µM (inactive) | GI50 [33]: 24.3 µM (inactive) | GI50 [34]: 28.4 µM (inactive) | GI50 [54]: 89.1 µM (inactive) | GI50 [35]: 65.2 µM (inactive) | GI50 [36]: 64.3 µM (inactive) | GI50 [37]: 36.8 µM (inactive) | GI50 [38]: 16.2 µM (inactive) | GI50 [39]: 38.9 µM (inactive) | GI50 [55]: 56.8 µM (inactive) | GI50 [40]: 46.1 µM (inactive) | GI50 [41]: 31.1 µM (inactive) | GI50 [56]: 25.8 µM (inactive) | GI50 [42]: 7.98 µM (inactive) | GI50 [43]: > 100 µM (inactive) | GI50 [44]: 20.9 µM (inactive) | GI50 [45]: 30.1 µM (inactive) | GI50 [46]: 37.5 µM (inactive) | GI50 [57]: 34.1 µM (inactive) | GI50 [58]: 42.4 µM (inactive) | GI50 [47]: 22.3 µM (inactive)

COC(=O)CC1(O)C(/C=C/c2ccccc2)C(C(=O)OC)C(=O)C(C(=O)OC)C1C(=O)OC (stereo not given)
GI50 [1]: > 100 µM (inactive) | GI50 [2]: > 100 µM (inactive) | GI50 [3]: > 100 µM (inactive) | GI50 [4]: > 100 µM (inactive) | GI50 [49]: > 100 µM (inactive) | GI50 [5]: > 100 µM (inactive) | GI50 [6]: > 100 µM (inactive) | GI50 [50]: > 100 µM (inactive) | GI50 [7]: > 100 µM (inactive) | GI50 [8]: > 100 µM (inactive) | GI50 [9]: > 100 µM | GI50 [10]: 44 µM (inactive) | GI50 [11]: > 100 µM (inactive) | GI50 [12]: 45.6 µM (inactive) | GI50 [13]: > 100 µM (inactive) | GI50 [14]: > 100 µM (inactive) | GI50 [51]: 49.5 µM (inactive) | GI50 [15]: > 100 µM (inactive) | GI50 [16]: 85.3 µM (inactive) | GI50 [17]: > 100 µM (inactive) | GI50 [18]: > 100 µM (inactive) | GI50 [19]: 54 µM (inactive) | GI50 [21]: > 100 µM (inactive) | GI50 [22]: > 100 µM (inactive) | GI50 [23]: 18.5 µM (inactive) | GI50 [24]: > 100 µM (inactive) | GI50 [25]: > 100 µM (inactive) | GI50 [26]: > 100 µM (inactive) | GI50 [27]: 26.7 µM (inactive) | GI50 [28]: > 100 µM (inactive) | GI50 [52]: > 100 µM (inactive) | GI50 [29]: > 100 µM (inactive) | GI50 [30]: > 100 µM (inactive) | GI50 [31]: 81.1 µM (inactive) | GI50 [32]: > 100 µM (inactive) | GI50 [33]: > 100 µM (inactive) | GI50 [34]: 79.3 µM (inactive) | GI50 [54]: > 100 µM (inactive) | GI50 [35]: > 100 µM (inactive) | GI50 [36]: > 100 µM (inactive) | GI50 [37]: > 100 µM (inactive) | GI50 [38]: > 100 µM (inactive) | GI50 [39]: > 100 µM (inactive) | GI50 [55]: > 100 µM (inactive) | GI50 [40]: > 100 µM (inactive) | GI50 [41]: 48.3 µM (inactive) | GI50 [56]: > 100 µM (inactive) | GI50 [42]: > 100 µM (inactive) | GI50 [43]: > 100 µM (inactive) | GI50 [44]: 96.8 µM (inactive) | GI50 [45]: > 100 µM (inactive) | GI50 [46]: > 100 µM (inactive) | GI50 [57]: > 100 µM (inactive) | GI50 [58]: 78.7 µM (inactive) | GI50 [47]: > 100 µM (inactive) | GI50 [48]: > 100 µM (inactive)
